Laboratory results reported in patent US20190209501A1, “COMPOSITIONS AND METHODS OF USE OF BETA-HYDROXY-BETA-METHYLBUTYRATE (HMB) […] IN[…]” (Texas Tech University Office of Research Commercialization, priority 2018, published 2019).

Tests used:
[1] = Vascular assessments (blood pressure, aortic pulse wave velocity); format: in vivo, human; parameters: Pulse Wave Velocity: unit not given here; conditions: for Aortic Diastolic Pressure / Aortic Systolic Pressure / Brachial Diastolic Pressure / Brachial Systolic Pressure / Heart Rate / Pulse Wave Velocity: mean ± SE; for Aortic Diastolic Pressure Δ / Aortic Diastolic Pressure Δ (%) / Aortic Systolic Pressure Δ / Aortic Systolic Pressure Δ (%) / Brachial Diastolic Pressure Δ / Brachial Diastolic Pressure Δ (%) / Brachial Systolic Pressure Δ / Brachial Systolic Pressure Δ (%) / Heart Rate Δ / Heart Rate Δ (%) / Pulse Wave Velocity Δ / Pulse Wave Velocity Δ (%): change baseline to W 8; for Aortic Diastolic Pressure ES (d) / Aortic Systolic Pressure ES (d) / Brachial Diastolic Pressure ES (d) / Brachial Systolic Pressure ES (d) / Heart Rate ES (d) / Pulse Wave Velocity ES (d): effect size
Protocol: Brachial blood pressure was measured using an automated cuff-based sphygmomanometer (HEM-907, Omron Healthcare. Kyoto, Japan). From this measurement, mean blood pressure and diastolic blood pressure were used to calibrate ensemble-averaged pressure waveforms measured at the left radial artery using applanation tonometry (SphygmoCor PVx, AtCor Medical, Itasca, Ill., USA). A general transfer function was also used to synthesize a central aortic waveform from the radial artery measurement. Wave separation analysis of the aortic pressure waveform allowed estimation of aortic pulse wave velocity (PWV), an index of arterial stiffness. Each participant remained supine for ≥10 min prior to vascular assessment. Duplicate measurements were obtained and averaged for analysis.

[2] = Questionnaires (Mood and Feelings, Pittsburgh Sleep Quality Index, Three-Factor Eating); format: in vivo, human; conditions: for MFQ Δ / MFQ Δ (%) / PSQI Δ / PSQI Δ (%) / TFEQ-CR Δ / TFEQ-CR Δ (%) / TFEQ-EE Δ / TFEQ-EE Δ (%) / TFEQ-UE Δ / TFEQ-UE Δ (%): change baseline to W 8
Description: As part of the screening procedures, participants were interviewed using a lifestyle questionnaire for determination of baseline eating and exercise habits. Participants completed follow-up lifestyle questionnaires at subsequent research visits. Additionally, participants completed the Mood and Feelings Questionnaire (38), the Pittsburgh Sleep Quality Index (39), the Three-Factor Eating Questionnaire Revised 18-item version (40) and a menstrual cycle questionnaire at each morning laboratory assessment session.

SMILES: CC(C)(O)CC(=O)O [TRFHMB, β-hydroxy-β-methylbutyrate]
- Aortic Diastolic Pressure ([1]; ITT, Baseline): 68 ± 2 mmHg
- Aortic Systolic Pressure ([1]; ITT, Baseline): 96 ± 2 mmHg
- Brachial Diastolic Pressure ([1]; ITT, Baseline): 67 ± 1 mmHg
- Brachial Systolic Pressure ([1]; ITT, Baseline): 112 ± 2 mmHg
- Heart Rate ([1]; ITT, Baseline): 62 ± 3 bpm
- Pulse Wave Velocity ([1]; ITT, Baseline): 5.5 ± 0.2
- Aortic Diastolic Pressure ([1]; ITT, W 8): 64 ± 2 mmHg
- Aortic Systolic Pressure ([1]; ITT, W 8): 94 ± 2 mmHg
- Brachial Diastolic Pressure ([1]; ITT, W 8): 63 ± 2 mmHg
- Brachial Systolic Pressure ([1]; ITT, W 8): 110 ± 2 mmHg
- Heart Rate ([1]; ITT, W 8): 63 ± 3 bpm
- Pulse Wave Velocity ([1]; ITT, W 8): 5.7 ± 0.1
- Aortic Diastolic Pressure Δ ([1]; ITT): −4 mmHg
- Aortic Diastolic Pressure Δ (%) ([1]; ITT): −6%
- Aortic Systolic Pressure Δ ([1]; ITT): −2 mmHg
- Aortic Systolic Pressure Δ (%) ([1]; ITT): −2%
- Brachial Diastolic Pressure Δ ([1]; ITT): −4 mmHg
- Brachial Diastolic Pressure Δ (%) ([1]; ITT): −6%
- Brachial Systolic Pressure Δ ([1]; ITT): −2 mmHg
- Brachial Systolic Pressure Δ (%) ([1]; ITT): −2%
- Heart Rate Δ ([1]; ITT): 1 bpm
- Heart Rate Δ (%) ([1]; ITT): 2%
- Pulse Wave Velocity Δ ([1]; ITT): 0.2
- Pulse Wave Velocity Δ (%) ([1]; ITT): 4%
- Aortic Diastolic Pressure ES (d) ([1]; ITT): −0.64
- Aortic Systolic Pressure ES (d) ([1]; ITT): −0.46
- Brachial Diastolic Pressure ES (d) ([1]; ITT): −0.63
- Brachial Systolic Pressure ES (d) ([1]; ITT): −0.22
- Heart Rate ES (d) ([1]; ITT): 0.07
- Pulse Wave Velocity ES (d) ([1]; ITT): 0.37
- Aortic Diastolic Pressure ([1]; PP, Baseline): 68 ± 2 mmHg
- Aortic Systolic Pressure ([1]; PP, Baseline): 97 ± 2 mmHg
- Brachial Diastolic Pressure ([1]; PP, Baseline): 67 ± 2 mmHg
- Brachial Systolic Pressure ([1]; PP, Baseline): 111 ± 2 mmHg
- Heart Rate ([1]; PP, Baseline): 62 ± 5 bpm
- Pulse Wave Velocity ([1]; PP, Baseline): 5.5 ± 0.3
- Aortic Diastolic Pressure ([1]; PP, W 8): 65 ± 2 mmHg
- Aortic Systolic Pressure ([1]; PP, W 8): 95 ± 2 mmHg
- Brachial Diastolic Pressure ([1]; PP, W 8): 64 ± 2 mmHg
- Brachial Systolic Pressure ([1]; PP, W 8): 112 ± 2 mmHg
- Heart Rate ([1]; PP, W 8): 62 ± 5 bpm
- Pulse Wave Velocity ([1]; PP, W 8): 5.8 ± 0.2
- Aortic Diastolic Pressure Δ ([1]; PP): −3 mmHg
- Aortic Diastolic Pressure Δ (%) ([1]; PP): −4%
- Aortic Systolic Pressure Δ ([1]; PP): −2 mmHg
- Aortic Systolic Pressure Δ (%) ([1]; PP): −2%
- Brachial Diastolic Pressure Δ ([1]; PP): −3 mmHg
- Brachial Diastolic Pressure Δ (%) ([1]; PP): −4%
- Brachial Systolic Pressure Δ ([1]; PP): 1 mmHg
- Brachial Systolic Pressure Δ (%) ([1]; PP): 1%
- Heart Rate Δ ([1]; PP): 0 bpm
- Heart Rate Δ (%) ([1]; PP): 0%
- Pulse Wave Velocity Δ ([1]; PP): 0.3
- Pulse Wave Velocity Δ (%) ([1]; PP): 5%
- Aortic Diastolic Pressure ES (d) ([1]; PP): −0.53
- Aortic Systolic Pressure ES (d) ([1]; PP): −0.20
- Brachial Diastolic Pressure ES (d) ([1]; PP): −0.49
- Brachial Systolic Pressure ES (d) ([1]; PP): 0.13
- Heart Rate ES (d) ([1]; PP): 0.06
- Pulse Wave Velocity ES (d) ([1]; PP): 0.46
- MFQ score ([2]; ITT, Baseline, mean ± SE): 1.4 ± 0.6
- PSQI score ([2]; ITT, Baseline, mean ± SE): 3.1 ± 0.3
- TFEQ-CR score ([2]; ITT, Baseline, mean ± SE): 17.8 ± 1
- TFEQ-UE score ([2]; ITT, Baseline, mean ± SE): 20.0 ± 1.2
- MFQ score ([2]; ITT, W 4, mean ± SE): 0.7 ± 0.4
- PSQI score ([2]; ITT, W 4, mean ± SE): 3.0 ± 0.3
- TFEQ-CR score ([2]; ITT, W 4, mean ± SE): 18.0 ± 1
- TFEQ-EE score ([2]; ITT, W 4, mean ± SE): 4.9 ± 0.5
- TFEQ-UE score ([2]; ITT, W 4, mean ± SE): 18.1 ± 1.4
- MFQ score ([2]; ITT, W 8, mean ± SE): 0.4 ± 0.4
- PSQI score ([2]; ITT, W 8, mean ± SE): 2.7 ± 0.2
- TFEQ-CR score ([2]; ITT, W 8, mean ± SE): 18.2 ± 1.1
- TFEQ-EE score ([2]; ITT, W 8, mean ± SE): 4.5 ± 0.6
- TFEQ-UE score ([2]; ITT, W 8, mean ± SE): 16.3 ± 1.3
- MFQ Δ ([2]; ITT): −1.0
- MFQ Δ (%) ([2]; ITT): −71%
- PSQI Δ ([2]; ITT): −0.4
- PSQI Δ (%) ([2]; ITT): −13%
- TFEQ-CR Δ ([2]; ITT): 0.4
- TFEQ-CR Δ (%) ([2]; ITT): 2%
- TFEQ-EE Δ ([2]; ITT): −0.9
- TFEQ-EE Δ (%) ([2]; ITT): −17%
- TFEQ-UE Δ ([2]; ITT): −3.7
- TFEQ-UE Δ (%) ([2]; ITT): −19%
- MFQ (Mood and Feelings Questionnaire) score ([2]; PP, Baseline, mean ± SE): 1.1 ± 0.7
- PSQI (Pittsburgh Sleep Quality Index) score ([2]; PP, Baseline, mean ± SE): 3.1 ± 0.3
- TFEQ-CR (Three-Factor Eating Questionnaire, Cognitive Restraint) score ([2]; PP, Baseline, mean ± SE): 17.1 ± 1.2
- TFEQ-EE (Emotional Eating) score ([2]; PP, Baseline, mean ± SE): 4.9 ± 0.6
- TFEQ-UE (Uncontrolled Eating) score ([2]; PP, Baseline, mean ± SE): 18.4 ± 1.3
- MFQ score ([2]; PP, W 4, mean ± SE): 0.6 ± 0.5
- PSQI score ([2]; PP, W 4, mean ± SE): 2.7 ± 0.3
- TFEQ-CR score ([2]; PP, W 4, mean ± SE): 18.3 ± 1.2
- TFEQ-EE score ([2]; PP, W 4, mean ± SE): 4.4 ± 0.7
- TFEQ-UE score ([2]; PP, W 4, mean ± SE): 18.7 ± 2.0
- MFQ score ([2]; PP, W 8, mean ± SE): 0.1 ± 0.5
- PSQI score ([2]; PP, W 8, mean ± SE): 2.6 ± 0.3
- TFEQ-CR score ([2]; PP, W 8, mean ± SE): 18.8 ± 1.1
- TFEQ-EE score ([2]; PP, W 8, mean ± SE): 3.7 ± 0.7
- TFEQ-UE score ([2]; PP, W 8, mean ± SE): 15.5 ± 1.8
- MFQ Δ ([2]; PP): −1.0
- MFQ Δ (%) ([2]; PP): −91%
- PSQI Δ ([2]; PP): −0.5
- PSQI Δ (%) ([2]; PP): −16%
- TFEQ-CR Δ ([2]; PP): 1.7
- TFEQ-CR Δ (%) ([2]; PP): 10%
- TFEQ-EE Δ ([2]; PP): −1.2
- TFEQ-EE Δ (%) ([2]; PP): −24%
- TFEQ-UE Δ ([2]; PP): −2.9
- TFEQ-UE Δ (%) ([2]; PP): −16%
